Results published in EP1561465A2, “Methods of use of fluoroquinolone compounds against bacteria” (LG Life Sciences, Ltd., priority 1999, dated 2001).
Values after ≈ are worked out from the molar mass of the structure shown. Like-named read-outs stand apart in the source and are kept apart here.

Tests used:
Type in all cases: cell-based
Streptococcus pyogenes [1] = test: MIC by NCCLS reference broth microdilution, 450 respiratory tract pathogens; conditions: Streptococcus pyogenes
Haemophilus influenzae [2] = test: as above; conditions: Haemophilus influenzae; for MIC90: read-out: MIC90
Haemophilus influenzae [3] = test: MIC by two-fold serial agar dilution, Sensitivity Disk agar-N (Kitasato isolates); conditions: Haemophilus influenzae (24)
Enterococcus gallinarum = test: MIC by NCCLS broth microdilution, 1100 Japanese clinical isolates 1997-1998; conditions: Enterococcus gallinarum, GALLINARUM
Enterobacter cloacae = test: as above; conditions: Enterobacter cloacae (n=40)
Haemophilus influenzae [4] = test: MIC by agar dilution (NCCLS), 411 isolates Buenos Aires 1998-99; conditions: Haemophilus influenzae (n = 65)
Streptococcus pyogenes [5] = test: as above
Enterococcus faecalis = test: MIC by agar macrodilution (NCCLS), 373 Gram positive isolates, Athens 1998
Shigella spp. = test: MIC by agar dilution (NCCLS M7-A4), 288 enteropathogenic isolates, gemifloxacin and 15 other antimicrobials; conditions: Shigella spp. N= 21
In short: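 Agar dilution with ~10^4 cfu/spot inoculum; plates incubated aerobically at 35 °C for 24 h, except C. jejuni, held microaerophilically for 48 h. MIC taken as lowest antibiotic concentration with no visible growth.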

[6] = Streptococcus pyogenes (n = 100)
[7] = erythromycin resistant C phenotype [MLSB] (n = 20)
[8] = erythromycin resistant I phenotype [MLSB] (n = 20)
[9] = erythromycin resistant M phenotype (n = 20)
[10] = Haemophilus influenzae (n = 100)
[11] = Enterococcus gallinarum (vanC1), strain TMS1, read-out: MIC
[12] = Enterococcus gallinarum (vanC1), strain TMS2, read-out: MIC
[13] = Enterococcus gallinarum (vanC1), strain TMS3, read-out: MIC
[14] = Enterococcus gallinarum (vanC1), strain TMS4, read-out: MIC

C[C@@H]1CN(c2c(F)c(N)c3c(=O)c(C(=O)O)cn(C4CC4)c3c2F)C[C@H](C)N1 [Sparfloxacin, sparfloxacin]
MIC (Streptococcus pyogenes [1]; [6]): 0.06 to 1 µg/mL (≈ 0.153 to 2.55 µM) | MIC50 (Streptococcus pyogenes [1]; [6]): 0.5 µg/mL (≈ 1.27 µM) | MIC90 (Streptococcus pyogenes [1]; [6]): 1 µg/mL (≈ 2.55 µM) | MIC (Streptococcus pyogenes [1]; [7]): 0.25 to 1 µg/mL (≈ 0.637 to 2.55 µM) | MIC50 (Streptococcus pyogenes [1]; [7]): 0.25 µg/mL (≈ 0.637 µM) | MIC90 (Streptococcus pyogenes [1]; [7]): 0.25 µg/mL (≈ 0.637 µM) | MIC (Streptococcus pyogenes [1]; [8]): 0.06 to 1 µg/mL (≈ 0.153 to 2.55 µM) | MIC50 (Streptococcus pyogenes [1]; [8]): 0.5 µg/mL (≈ 1.27 µM) | MIC90 (Streptococcus pyogenes [1]; [8]): 0.5 µg/mL (≈ 1.27 µM) | MIC (Streptococcus pyogenes [1]; [9]): 0.25 to 1 µg/mL (≈ 0.637 to 2.55 µM) | MIC50 (Streptococcus pyogenes [1]; [9]): 0.5 µg/mL (≈ 1.27 µM) | MIC90 (Streptococcus pyogenes [1]; [9]): 0.5 µg/mL (≈ 1.27 µM) | MIC (Streptococcus pyogenes [1]; fully susceptible (n = 20)): 0.25 to 1 µg/mL (≈ 0.637 to 2.55 µM) | MIC50 (Streptococcus pyogenes [1]; fully susceptible (n = 20)): 0.5 µg/mL (≈ 1.27 µM) | MIC90 (Streptococcus pyogenes [1]; fully susceptible (n = 20)): 1 µg/mL (≈ 2.55 µM) | MIC (Streptococcus pyogenes [1]; multi-drug resistant (n = 20)): 0.25 to 1 µg/mL (≈ 0.637 to 2.55 µM) | MIC50 (Streptococcus pyogenes [1]; multi-drug resistant (n = 20)): 1 µg/mL (≈ 2.55 µM) | MIC90 (Streptococcus pyogenes [1]; multi-drug resistant (n = 20)): 1 µg/mL (≈ 2.55 µM) | MIC (Haemophilus influenzae [2]; [10]): 0.0075 to 0.25 µg/mL (≈ 0.0191 to 0.637 µM) | MIC50 (Haemophilus influenzae [2]; [10]): 0.01 µg/mL (≈ 0.0255 µM) | MIC90 (Haemophilus influenzae [2]; [10]): 0.03 µg/mL (≈ 0.0765 µM) | MIC (Haemophilus influenzae [2]; β-lactamase negative (n = 80)): 0.0075 to 0.25 µg/mL (≈ 0.0191 to 0.637 µM) | MIC50 (Haemophilus influenzae [2]; β-lactamase negative (n = 80)): 0.015 µg/mL (≈ 0.0382 µM) | MIC90 (Haemophilus influenzae [2]; β-lactamase negative (n = 80)): 0.25 µg/mL (≈ 0.637 µM) | MIC (Haemophilus influenzae [2]; β-lactamase positive (n = 20)): 0.0075 to 0.12 µg/mL (≈ 0.0191 to 0.306 µM) | MIC50 (Haemophilus influenzae [2]; β-lactamase positive (n = 20)): 0.015 µg/mL (≈ 0.0382 µM) | MIC90 (Haemophilus influenzae [2]; β-lactamase positive (n = 20)): 0.03 µg/mL (≈ 0.0765 µM) | MIC50 (Haemophilus influenzae [3]): 0.016 µg/mL (≈ 0.0408 µM) | MIC90 (Haemophilus influenzae [3]): 0.031 µg/mL (≈ 0.079 µM) | MIC Range (Haemophilus influenzae [3]): ≤0.004 to 0.063 µg/mL | MIC (Enterococcus gallinarum; [11]): 0.25 µg/mL (≈ 0.637 µM) | MIC (Enterococcus gallinarum; [12]): 0.5 µg/mL (≈ 1.27 µM) | MIC (Enterococcus gallinarum; [13]): 0.5 µg/mL (≈ 1.27 µM) | MIC (Enterococcus gallinarum; [14]): 0.25 µg/mL (≈ 0.637 µM) | MIC50 (Enterobacter cloacae): 0.032 µg/mL (≈ 0.0815 µM) | MIC90 (Enterobacter cloacae): 1 µg/mL (≈ 2.55 µM) | MIC Range (Enterobacter cloacae): ≤0.008 to 2 µg/mL

NC1CCN(c2nc3c(cc2F)c(=O)c(C(=O)O)cn3-c2ccc(F)cc2F)C1 (centres unmarked) [Tosufloxacin, tosufloxacin]
MIC (Enterococcus gallinarum): 0.125 µg/mL (≈ 0.309 µM) | MIC (Enterococcus gallinarum; [11]): 0.25 µg/mL (≈ 0.618 µM) | MIC (Enterococcus gallinarum; [12]): 0.5 µg/mL (≈ 1.24 µM) | MIC (Enterococcus gallinarum; [13]): 0.5 µg/mL (≈ 1.24 µM) | MIC50 (Enterobacter cloacae): 0.032 µg/mL (≈ 0.0791 µM) | MIC90 (Enterobacter cloacae): 1 µg/mL (≈ 2.47 µM) | MIC Range (Enterobacter cloacae): ≤0.008 to 2 µg/mL

N[C@@H]1[C@H]2CN(c3nc4c(cc3F)c(=O)c(C(=O)O)cn4-c3ccc(F)cc3F)C[C@@H]12 [Trovafloxacin, trovafloxacin]
MIC90 (Haemophilus influenzae [4]): 0.03 µg/mL (≈ 0.0721 µM) | MIC Range (Haemophilus influenzae [4]): ≤0.004 to 0.5 µg/mL | MIC90 (Streptococcus pyogenes [5]; Streptococcus pyogenes): 0.125 µg/mL (≈ 0.3 µM) | MIC Range (Streptococcus pyogenes [5]; Streptococcus pyogenes (n = 69)): 0.06 to 1 µg/mL | MIC (Streptococcus pyogenes [1]; [6]): 0.03 to 1 µg/mL (≈ 0.0721 to 2.4 µM) | MIC50 (Streptococcus pyogenes [1]; [6]): 0.12 µg/mL (≈ 0.288 µM) | MIC90 (Streptococcus pyogenes [1]; [6]): 0.25 µg/mL (≈ 0.6 µM) | MIC (Streptococcus pyogenes [1]; [7]): 0.03 to 0.12 µg/mL (≈ 0.0721 to 0.288 µM) | MIC50 (Streptococcus pyogenes [1]; [7]): 0.06 µg/mL (≈ 0.144 µM) | MIC90 (Streptococcus pyogenes [1]; [7]): 0.12 µg/mL (≈ 0.288 µM) | MIC (Streptococcus pyogenes [1]; [8]): 0.06 to 0.5 µg/mL (≈ 0.144 to 1.2 µM) | MIC50 (Streptococcus pyogenes [1]; [8]): 0.12 µg/mL (≈ 0.288 µM) | MIC90 (Streptococcus pyogenes [1]; [8]): 0.5 µg/mL (≈ 1.2 µM) | MIC (Streptococcus pyogenes [1]; [9]): 0.06 to 0.5 µg/mL (≈ 0.144 to 1.2 µM) | MIC50 (Streptococcus pyogenes [1]; [9]): 0.12 µg/mL (≈ 0.288 µM) | MIC90 (Streptococcus pyogenes [1]; [9]): 0.12 µg/mL (≈ 0.288 µM) | MIC (Streptococcus pyogenes [1]; fully susceptible (n = 20)): 0.06 to 1 µg/mL (≈ 0.144 to 2.4 µM) | MIC50 (Streptococcus pyogenes [1]; fully susceptible (n = 20)): 0.12 µg/mL (≈ 0.288 µM) | MIC90 (Streptococcus pyogenes [1]; fully susceptible (n = 20)): 0.25 µg/mL (≈ 0.6 µM) | MIC (Streptococcus pyogenes [1]; multi-drug resistant (n = 20)): 0.12 to 0.25 µg/mL (≈ 0.288 to 0.6 µM) | MIC50 (Streptococcus pyogenes [1]; multi-drug resistant (n = 20)): 0.12 µg/mL (≈ 0.288 µM) | MIC90 (Streptococcus pyogenes [1]; multi-drug resistant (n = 20)): 0.25 µg/mL (≈ 0.6 µM) | MIC (Haemophilus influenzae [2]; [10]): 0.0075 to 0.25 µg/mL (≈ 0.018 to 0.6 µM) | MIC50 (Haemophilus influenzae [2]; [10]): ≤ 0.00075 µg/mL | MIC90 (Haemophilus influenzae [2]; [10]): 0.06 µg/mL (≈ 0.144 µM) | MIC (Haemophilus influenzae [2]; β-lactamase negative (n = 80)): 0.0075 to 0.25 µg/mL (≈ 0.018 to 0.6 µM) | MIC50 (Haemophilus influenzae [2]; β-lactamase negative (n = 80)): ≤ 0.0075 µg/mL | MIC90 (Haemophilus influenzae [2]; β-lactamase negative (n = 80)): 0.015 µg/mL (≈ 0.036 µM) | MIC (Haemophilus influenzae [2]; β-lactamase positive (n = 20)): 0.0075 to 0.06 µg/mL (≈ 0.018 to 0.144 µM) | MIC50 (Haemophilus influenzae [2]; β-lactamase positive (n = 20)): ≤ 0.0075 µg/mL | MIC90 (Haemophilus influenzae [2]; β-lactamase positive (n = 20)): 0.06 µg/mL (≈ 0.144 µM) | MIC50 (Haemophilus influenzae [3]): 0.016 µg/mL (≈ 0.0384 µM) | MIC90 (Haemophilus influenzae [3]): 0.031 µg/mL (≈ 0.0745 µM) | MIC Range (Haemophilus influenzae [3]): ≤0.004 to 0.031 µg/mL | MIC (Enterococcus gallinarum): 0.125 µg/mL (≈ 0.3 µM) | MIC (Enterococcus gallinarum; [12]): 0.25 µg/mL (≈ 0.6 µM) | MIC (Enterococcus gallinarum; [13]): 0.25 µg/mL (≈ 0.6 µM) | MIC (Enterococcus gallinarum; [14]): 0.063 µg/mL (≈ 0.151 µM) | MIC50 (Enterobacter cloacae): 0.032 µg/mL (≈ 0.0769 µM) | MIC90 (Enterobacter cloacae): 1 µg/mL (≈ 2.4 µM) | MIC Range (Enterobacter cloacae): ≤0.008 to 2 µg/mL | MIC distribution (µg/ml) 0.06 (Enterococcus faecalis): 1 | MIC distribution (µg/ml) 0.125 (Enterococcus faecalis): 0 | MIC distribution (µg/ml) 0.25 (Enterococcus faecalis): 6 | MIC distribution (µg/ml) 0.5 (Enterococcus faecalis): 21 | MIC distribution (µg/ml) 1 (Enterococcus faecalis): 23 | MIC distribution (µg/ml) 2 (Enterococcus faecalis): 6 | MIC distribution (µg/ml) 4 (Enterococcus faecalis): 0 | MIC distribution (µg/ml) 8 (Enterococcus faecalis): 3 | MIC distribution (µg/ml) 16 (Enterococcus faecalis): 3 | MIC distribution (µg/ml) ≤0.015 (Enterococcus faecalis): 0 | MIC distribution (µg/ml) ≥32 (Enterococcus faecalis): 17 | MIC50 (Enterococcus faecalis; Enterococcus faecalis, n = 81 isolates, read-out: MIC50): 1 µg/mL (≈ 2.4 µM) | MIC90 (Enterococcus faecalis; Enterococcus faecalis, n = 81 isolates, read-out: MIC90): ≥ 32 µg/mL | MIC (Shigella spp.; 24 h, read-out: MIC (mg/L) Range): ≤ 0.015 mg/L | MIC (Shigella spp.; read-out: MIC (mg/L) 50%): ≤ 0.015 mg/L | MIC (Shigella spp.; read-out: MIC (mg/L) 90%): ≤ 0.015 mg/L
